From patent publication US8716521B2 (priority 2008, dated 2014)
Where a name gives a salt, the structure may show the parent alone. Read-outs that look alike come from different tables or passages of the source.

Key:
[1] = aqueous solution in the narrow pH range of solubility
[2] = Dissolution rate and vinyl sulfone generation during compounding at different temperatures; type: physicochemical; details: for dissolution time: 50 mL batch size
From the text: The following items are some critical issues for the compounding of the drug product. • If the solution pH is higher than target pH, it can be titrated with 1.0 NHCL to the target pH. If the pH is too low, it will not be possible to back titrate with NaOH due to the sensibility of canfosfamide hydrochloride to alkaline environment. • Due to the acidity of the drug substance, the rate of dissolution of drug substance influences the pH of the compounding solution. A quick dissolution could reduce the pH faster and therefore reduce the time of exposure of the drug to high pH. […] The solution was then analyzed by HPLC.
An additional study of two liter batch size was conducted. Canfosfamide hydrochloride was dissolved into three batches of pH 6.5, 0.1 M citrate buffer and monitored at different temperatures; 5° C., 20° C. and 40° C. […] In the second batch at 20° C. (room temperature), the drug was totally dissolved after 20 minutes. […] The third batch consisted of adding drug at room temperature and allowing the temperature to increase to 40° C. over 90 minutes. […] These experiments support controlling the compounding procedure at room temperature until all drug is dissolved and filtered.

[3] = Stability in solution at 1 mg/mL, effect of pH (vinyl sulfone generation); type: physicochemical; details: 1 mg/mL in 0.1 M citrate buffer
Protocol: A stability study was performed by monitoring vinyl sulfone generation. Canfosfamide hydrochloride was dissolved at 1 mg/mL into 0.1 M citrated buffer from pH 4.5 to pH 6.5. The solutions were incubated at 25° C. for 24 hours. Vinyl sulfone generation was monitored.

[4] = not given; remark: listed apart in the source
[5] = Vinyl sulfone degradation on titration with NaOH
[6] = pH and osmolality of 50 mg/mL solution in citrate buffer
From the text: The solubility of canfosfamide hydrochloride depends on the concentration and initial pH of buffer system.

SMILES: N[C@@H](CCC(=O)N[C@@H](CS(=O)(=O)CCOP(=O)(N(CCCl)CCCl)N(CCCl)CCCl)C(=O)N[C@@H](C(=O)O)c1ccccc1)C(=O)O [Canfosfamide]
- time aqueous formulations are stable before decomposition products are observed [1]: 6 to 12 h

SMILES: N[C@@H](CCC(=O)N[C@@H](CS(=O)(=O)CCOP(=O)(N(CCCl)CCCl)N(CCCl)CCCl)C(=O)N[C@@H](C(=O)O)c1ccccc1)C(=O)O [canfosfamide hydrochloride]
- dissolution time ([2]; 5° C.): 45 min
- dissolution time ([2]; room temperature): 25 min
- vinyl sulfone generated at 5° C. versus room temperature ([2]; during dissolution, HPLC): not significantly different
- dissolution observation ([2]; two liter batch, pH 6.5 0.1 M citrate buffer, 5° C., after 80 minutes): minor particles were observed
- time to total dissolution ([2]; two liter batch, pH 6.5 0.1 M citrate buffer, 20° C. (room temperature)): 20 min
- vinyl sulfone generated ([2]; two liter batch, temperature increased from room temperature to 40° C. over 90 minutes): higher than the two previous batches
- Percent vinyl sulfone at 25° C. ([3]; pH 4.5, 6 hrs): 0.1%
- Percent vinyl sulfone at 25° C. ([3]; pH 4.5, 24 hrs): 0.4%
- Percent vinyl sulfone at 25° C. ([3]; pH 5.0, 6 hrs): 0.2%
- Percent vinyl sulfone at 25° C. ([3]; pH 5.0, 24 hrs): 1.1%
- Percent vinyl sulfone at 25° C. ([3]; pH 5.5, 6 hrs): 0.6%
- Percent vinyl sulfone at 25° C. ([3]; pH 5.5, 24 hrs): 2.9%
- Percent vinyl sulfone at 25° C. ([3]; pH 6.0, 6 hrs): 1.7%
- Percent vinyl sulfone at 25° C. ([3]; pH 6.0, 24 hrs): 8.2%
- Percent vinyl sulfone at 25° C. ([3]; pH 6.5, 6 hrs): 6.6%
- Percent vinyl sulfone at 25° C. ([3]; pH 6.5, 24 hrs): 24.2%
- amount dissolved by citrate buffer (0.1 M citrate buffer at pH 6.5): approximately 100 mg/mL
- pH at which soluble (aqueous): above 4.2
- pH at which stability is limited (aqueous): > 5.0
- % Purity 25° C. ([4]; 3 Month, bulk solution 50 mg/mL at pH 4.6, data is ± 2%): 69%
- % Purity 25° C. ([4]; Day 0, bulk solution 50 mg/mL at pH 4.6, data is ± 2%): 92%
- % Purity 25° C. ([4]; Day 3, bulk solution 50 mg/mL at pH 4.6, data is ± 2%): 93%
- % Purity 25° C. ([4]; Day 7, bulk solution 50 mg/mL at pH 4.6, data is ± 2%): 89%
- % Purity 25° C. ([4]; Day 28, bulk solution 50 mg/mL at pH 4.6, data is ± 2%): 84%
- % Purity 25° C. ([4]; Day l, bulk solution 50 mg/mL at pH 4.6, data is ± 2%): 89%
- solubility (physchem; citrate buffer, pH 5.5, aqueous buffer): 174 mg/mL
- solubility (physchem; water): ~2 mg/mL
- content of vinyl sulfone before titration ([5]; 50 mg/mL in pH 4.3 citrate buffer): 0.64%
- content of vinyl sulfone after titration ([5]; 50 mg/mL in pH 4.3 citrate buffer titrated with 0.1 N NaOH to pH 4.5): 1.3%
- content of vinyl sulfone after titration ([5]; 50 mg/mL in pH 4.3 citrate buffer titrated with 1.0 N NaOH to pH 4.5): 6.5%
- pH of solution ([6]; 50 mg/mL dissolved in 0.1 M citrate buffer at pH 6.5): about 4.6
- osmolality ([6]; 50 mg/mL in 100 mM citrate buffer): about 400 mM
